Source: patent US20090197949A1, “ANTITUMOR METHODS AND COMPOSITIONS COMPRISING SESQUITERPENE DERIVATIVES” (F.P.L. Pharma, Inc., priority 2001, published 2009)
Like-named read-outs stand apart in the source and are kept apart here.

What was measured:
[1] = system: A-549 human lung carcinoma; test: cells; type: cell-based
Description: (§1) Normal human fibroblasts were purchased from Biopredic International (Rennes, France). This frozen culture was obtained from a person abdominal surgical waste and the cells used in this work was from the 7th to the 12th passage of the culture. M4Beu and […], human melanoma cell lines, was established in the laboratory of Dr. J. F. Doré (Institut National de la Santé et de la Recherche Médicale-INSERM, Unit 218, Lyon, France) from metastatic biopsy specimens (Thomasset, N. et al.; British Journal of Cancer, 46, 58-66 (1982)). Murine colon carcinoma cell line CT-26 was obtained from Dr I. J. Fidler (University of Texas M.D. Anderson Cancer Center, Houston). Breast cancer adenocarcinoma MCF-7 and MDA-MB-231, prostatic adenocarcinoma PC-3, ovary adenocarcinoma SK-OV-3, lung carcinoma A-549, colon adenocarcinoma DLD-1, human cell lines and melanoma 1B16 and fibroblast L-929 murine cell lines were purchased from American Type of Culture Collection (ATCC) or the European Collection of Cell Cultures (ECACC; Salisbury, United-Kingdom). Stock cell cultures were maintained as monolayers in 75-cm^2 culture flasks in GlutamaxTM Eagle's minimum essential medium with Earle's salts (Gibco-BRL, Paisley, Scotland) supplemented with 10% foetal calf serum (Sigma), and 5 ml of a 100× solution of vitamins (Gibco), 5 ml of 100 mM sodium pyruvate (Gibco), 5 ml of 100× non-essential amino acids (Gibco) and 2 mg of gentamicin base (Gibco). Cells were grown in a humidified 37° C. incubator containing 5% CO2. Cells were plated at a density of 5×10^3 cells per well in 96-well microplates (NunclonTM, Nunc) in 100 μl of culture medium and were allowed to adhere for 16 h before treatment. Then, 100 μl of culture medium containing essential oil of Pinus divaricata, essential oil of Thuya occidentalis, essential oil of Abies balsamea, α-humulene (Sigma-Aldrich); isocaryophyllene (Sigma-Aldrich) were added and incubated at 37° C. for 48 h. All compounds were dissolved in ethanol and the final concentration of ethanol in the culture medium was maintained at 0.5% (v/v). The effect of essential oils and compounds of oil on the proliferation of tumour cells was assessed using resazurin reduction test. Resazurin was recently identified as the alamar Blue dye (O'Brien, J. et al.; European Journal of Biochemistry, 267, 5421-6, (2000)). The resazurin reduction test (RRT) was carried out according to the protocol described here. Briefly, plates were rinsed by 200 μl PBS (37° C., Gibco) at 37° C. using an automatic microplate washer (Cell WashTM, Labsystems, Helsinki, Finland) and emptied by overturning on absorbent toweling. Then, 150 μl of a 25 μg/ml solution of resazurin in RPMI 1640 without Phenol red was added in each well using an automatic microvolume dispenser (Multidrop 384TM Labsystems). The plates were incubated 1 h at 37° C. in an humidified atmosphere with 5% of CO2 for fluorescence development by living cells. Fluorescence was then measured on the automated 96-well plate reader Fluoroskan Ascent FLTM (Labsystems) using an excitation wavelength of 530 nm and an emission one of 590 nm. The fluorescence is proportional to the number of living cells in the well and IC50 (drug concentration required to inhibit cell proliferation by 50%) was calculated from the curve of concentration-dependent survival percentage, defined as the fluorescence in experimental wells as a percentage of that in control wells, with blank values subtracted. The essentials oil of jack pine (Pinus banksiana or Pinus divaricata), eastern white cedar (Thuya occidentalis), balsam fir (Abies balsamea), were evaluated for their cytotoxic activity against various tumor cell lines (Table 1). The cell growth inhibition were measured by the fluorescence induced by the metabolic transformation of resazurin in resorufin. The fluorescence is proportional to living cells and allow to evaluate the concentration inhibiting 50% of cell growth (IC50).

[2] = system: DLD-1 human colon adenocarcinoma; test: cells; type: cell-based
Description: as §1

M4BEU human melanoma = test: cells; type: cell-based
Description: as §1

[3] = system: MCF-7 human breast adenocarcinoma; test: cells; type: cell-based
Description: as §1

[4] = system: PC-3 human prostatic adenocarcinoma; test: cells; type: cell-based
Description: as §1

Normal human fibroblasts = test: In vitro survival assay, resazurin reduction test, normal fibroblasts; type: cell-based; conditions: Fibroblast
Description: (§2) Normal human fibroblasts were purchased from Biopredic International (Rennes, France). This frozen culture was obtained from a person abdominal surgical waste and the cells used in this work was from the 7th to the 12th passage of the culture. M4Beu and […], human melanoma cell lines, was established in the laboratory of Dr. J. F. Doré (Institut National de la Santé et de la Recherche Médicale-INSERM, Unit 218, Lyon, France) from metastatic biopsy specimens (Thomasset, N. et al.; British Journal of Cancer, 46, 58-66 (1982)). Murine colon carcinoma cell line CT-26 was obtained from Dr I. J. Fidler (University of Texas M.D. Anderson Cancer Center, Houston). Breast cancer adenocarcinoma MCF-7 and MDA-MB-231, prostatic adenocarcinoma PC-3, ovary adenocarcinoma SK-OV-3, lung carcinoma A-549, colon adenocarcinoma DLD-1, human cell lines and melanoma 1B16 and fibroblast L-929 murine cell lines were purchased from American Type of Culture Collection (ATCC) or the European Collection of Cell Cultures (ECACC; Salisbury, United-Kingdom). […] The effect of essential oils and compounds of oil on the proliferation of tumour cells was assessed using resazurin reduction test. […] The plates were incubated 1 h at 37° C. in an humidified atmosphere with 5% of CO2 for fluorescence development by living cells. Fluorescence was then measured on the automated 96-well plate reader Fluoroskan Ascent FLTM (Labsystems) using an excitation wavelength of 530 nm and an emission one of 590 nm. […] The essentials oil of jack pine (Pinus banksiana or Pinus divaricata), eastern white cedar (Thuya occidentalis), balsam fir (Abies balsamea), were evaluated for their cytotoxic activity against various tumor cell lines (Table 1). The cell growth inhibition were measured by the fluorescence induced by the metabolic transformation of resazurin in resorufin. […]

[5] = system: L-929 mouse subcutaneous connective tissue (fibroblast); test: In vitro survival assay, resazurin reduction test, L-929; type: cell-based; conditions: L929, L-929, 48 h
Description: as §2, with “Houston).” for “Houston). Breast cancer adenocarcinoma MCF-7 and MDA-MB-231, prostatic adenocarcinoma PC-3, ovary adenocarcinoma SK-OV-3, lung carcinoma A-549, colon adenocarcinoma DLD-1, human cell lines and melanoma 1B16 and fibroblast L-929 murine cell lines were purchased from American Type of Culture Collection (ATCC) or the European Collection of Cell Cultures (ECACC; Salisbury, United-Kingdom).”, “1).” for “1). The cell growth inhibition were measured by the fluorescence induced by the metabolic transformation of resazurin in resorufin.”

[6] = system: CT-26 mouse colon carcinoma; test: In vitro survival assay, resazurin reduction test, CT-26; type: cell-based; conditions: CT26, CT-26, 48 h
Description: as §2, with “Houston).” for “Houston). Breast cancer adenocarcinoma MCF-7 and MDA-MB-231, prostatic adenocarcinoma PC-3, ovary adenocarcinoma SK-OV-3, lung carcinoma A-549, colon adenocarcinoma DLD-1, human cell lines and melanoma 1B16 and fibroblast L-929 murine cell lines were purchased from American Type of Culture Collection (ATCC) or the European Collection of Cell Cultures (ECACC; Salisbury, United-Kingdom).”, “1).” for “1). The cell growth inhibition were measured by the fluorescence induced by the metabolic transformation of resazurin in resorufin.”

tumor cell lines = test: In vitro cytotoxic/antitumoral activity against tumor cell lines (panel statement); type: cell-based
Description: Cells were plated at a density of 5×10^3 cells per well in 96-well microplates (Nunclon™, Nunc) in 100 μl of culture medium and were allowed to adhere for 16 h before treatment. Then, 100 μl of culture medium containing essential oil of Pinus divaricata, essential oil of Thuya occidentalis, essential oil of Abies balsamea, α-humulene (Sigma-Aldrich); isocaryophyllene (Sigma-Aldrich) were added and incubated at 37° C. for 48 h. All compounds were dissolved in ethanol and the final concentration of ethanol in the culture medium was maintained at 0.5% (v/v). The effect of essential oils and compounds of oil on the proliferation of tumour cells was assessed using resazurin reduction test.
The resazurin reduction test (RRT) was carried out according to the protocol described here. Briefly, plates were rinsed by 200 μl PBS (37° C., Gibco) at 37° C. using an automatic microplate washer (Cell Wash™, Labsystems, Helsinki, Finland) and emptied by overturning on absorbent toweling. […] The plates were incubated 1 h at 37° C. in an humidified atmosphere with 5% of CO2 for fluorescence development by living cells. Fluorescence was then measured on the automated 96-well plate reader Fluoroskan Ascent FL™ (Labsystems) using an excitation wavelength of 530 nm and an emission one of 590 nm.

[7] = system: glutathione-S-transferase; conditions: Zheng et al. 1992; cited from earlier work
[8] = system: about ten tumor cell lines; conditions: Kaneda et al. 1992; cited from earlier work
[9] = system: gastric mucosal injuries induced by necrotizing agents; conditions: necrotizing agents such as absolute ethanol and HCl; Tambe et al. 1996; cited from earlier work
[10] = A549, A-549, 48 h, read-out: IC50
[11] = MCF7, MCF-7, 48 h, read-out: IC50

## C=C1CCC=C(C)CC[C@H]2[C@@H]1CC2(C)C (relative stereo) [Isocaryophyllene, cis-4,11,11-Trimethyl-8-methylenebicyclo[7.2.0]undec-4-ene]
[1]; [10]
  IC50: 59 ± 4 µM
[2]; DLD-1, 48 h, read-out: IC50
  IC50: 124 ± 17 µM
M4BEU human melanoma; 48 h, read-out: IC50
  IC50: 43 ± 3 µM
[3]; [11]
  IC50: 84 ± 6 µM
[4]; PC-3, 48 h, read-out: IC50
  IC50: 87 ± 8 µM
Normal human fibroblasts; 48 h, read-out: IC50
  IC50: 124 ± 15 µM
Normal human fibroblasts; fibroblastic normal cell, Table 2, read-out: activity against fibroblastic normal cell
  IC50: > 100 µM
[5]
  IC50: 34 ± 0.8 µM
[6]
  IC50: 46 ± 1 µM
Tumor cell lines; all tumor cells tested, Table 2
  IC50: < 100 µM

## CC1=CCCC(C)=CCC(C)(C)C=CC1 [α-humulene, 2,6,6,9-Tetramethyl-1,4,8-cycloundecatriene]
[1]; [10]
  IC50: 68 ± 2 µM
[1]; A549, read-out: cytotoxic activity
  IC50: < 100 µM
[2]; DLD-1, 48 h, read-out: IC50
  IC50: 71 ± 2 µM
[2]; DLD-1, read-out: cytotoxic activity
  IC50: < 100 µM
M4BEU human melanoma; 48 h, read-out: IC50
  IC50: 55 ± 2 µM
M4BEU human melanoma; read-out: cytotoxic activity
  IC50: < 100 µM
[3]; [11]
  IC50: 73 ± 2 µM
[3]; MCF7, read-out: cytotoxic activity
  IC50: < 100 µM
[4]; PC-3, 48 h, read-out: IC50
  IC50: 73 ± 2 µM
[4]; read-out: cytotoxic activity
  IC50: < 100 µM
Normal human fibroblasts; 48 h, read-out: IC50
  IC50: 85 ± 5 µM
[5]
  IC50: 50.2 ± 0.3 µM
[6]
  IC50: 53 ± 1 µM
[7]
  glutathione-S-transferase activity in vivo: increasing of gluthatione-S-transferase activity

## C=C1CC[C@H]2O[C@]2(C)CC[C@@H]2[C@@H]1CC2(C)C [β-caryophyllene oxide]
Tumor cell lines
  antitumoral activity in vitro, evaluated by the Applicants: no significant bioactivity
[8]
  activity in vitro against about ten tumor cell lines: inactive
[7]
  glutathione-S-transferase activity in vivo: increasing of gluthatione-S-transferase activity

## C=C1CC/C=C(\C)CC[C@@H]2[C@@H]1CC2(C)C [β-caryophyllene]
Tumor cell lines
  antitumoral activity in vitro, evaluated by the Applicants: no significant bioactivity
[7]
  glutathione-S-transferase activity in vivo: increasing of gluthatione-S-transferase activity
[9]
  gastric cytoprotection effect: inhibition of gastric mucosal injuries
